# System: patients undergoing knee replacement surgery
# Assay: Bleeding events during 14-day therapy, phase II trial
# Type: in vivo, human
# Conditions: for Bleeding, n (safety outcomes): 14 days
# Source text: The design, eligibility criteria, and outcomes of the phase II clinical trial evaluating the safety and tolerability of DD217 (NCT05189002, ClinicalTrials.gov) have been described previously. Briefly, this was a multicenter, double-blind, randomized, prospective phase II study designed to determine the optimal dosing regimen and to assess the safety and efficacy of DD217 for the prevention of venous thromboembolism (VTE) in patients undergoing knee replacement surgery. Patients were randomized into one of three groups: two groups received oral DD217 at doses of 40 mg or 60 mg once daily, starting on the morning of the first postoperative day, and one group received the active comparator, dalteparin sodium. The treatment duration was 14 days.
# In total, seven cases of DVT/PE were documented during the trial: four in the DD217 40 mg/day group, one in the DD217 60 mg/day group, and two in the dalteparin sodium group. In addition, two bleeding events were recorded: one clinically relevant non-major bleed in the DD217 60 mg/day group and one clinically non-relevant minor bleed in the dalteparin sodium group.
smiles,measurement,setting,value
"CC(=N)N(C)c1ccc(C(=O)Nc2ccc(C)cc2C(=O)Nc2ccc(Cl)cn2)cc1.Cl [DD217, N-(5-chloropyridin-2-yl)-5-methyl-2-[4-(N-methylacetimidamido)benzamido]benzamide hydrochloride]","Bleeding, n (safety outcomes)","DD217 40 mg/day oral, of 16 patients",0 n
same,bleeding events,"DD217 60 mg/day group, clinically relevant non-major bleed",one
same,"Bleeding, n (safety outcomes)","DD217 60 mg/day oral, of 18 patients",1 n
